Broadly, the IC50 is the concentration that inhibits the measured activity by half. The inhibition is the percentage by which the read-out fell short of the control.

These results are taken from article PMC9540667, “Novel insights on [1,2]oxazolo[5,4‐e]isoindoles on multidrug resistant acute myeloid leukemia cell line” (Drug Development Research, 2022).

Assay type in all cases: cell-based
Assay [1] has as its system hTERT‐RPE‐1 cells. As to the kind of experiment: Cell growth assay (MTS), non-tumorigenic hTERT-RPE-1 cells. To be noted: 72 h, the maximum concentration used in the MTS assay is reported, read-out: h‐TERT‐RPE‐1 (IC50). How it is done:
(§1) HL‐60 cells were obtained from ATCC® (CCL‐240), whereas its variant HL‐60R was selected for MDR by exposure to gradually increasing concentrations of doxorubicin. MCF‐7 cells were obtained from ATCC® (HTB‐22). The nontumorigenic cell lines hTERT‐RPE‐1 (ATCC, CRL‐4010) and 1‐7HB2 (ECACC 10081201‐Cancer Research Technology) was kindly provided by Prof. Patrizia Cancemi and Prof. Giulio Ghersi (STEBICEF Department, University of Palermo, Italy), respectively. Cells were cultured in a humidified atmosphere at 37°C in 5% CO2. After obtaining the cells, the first passage carried out was assigned passage number 1. Cells with a narrow range of passage number […] were routinely tested for Mycoplasma contamination and were used for all experiments. HL‐60 and HL‐60R cells were cultured in Roswell Park Memorial Institute (RPMI) 1640, while MCF‐7, hTERT‐RPE‐1, and 1‐7HB‐2 cells were cultured in Dulbecco's Modified Eagle Medium (DMEM) (HyClone Europe Ltd.) low glucose, in particular only for 1‐7HB‐2 cells supplemented with hydrocortisone (5 μg/ml) and insulin (10 μg/ml). All media were supplemented with 10% heat‐inactivated fetal calf serum, 2 mM L‐glutamine, 100 U/ml penicillin, and 100 μg/ml streptomycin (all reagents were from EuroClone S.p.A.; GE Healthcare Life Sciences).
(§2) Cells were seeded at 5 × 10^3 cells/well onto 96 well plates and incubated overnight at 37°C. At time 0, the medium was replaced with fresh complete medium supplemented with the [1,2]oxazolo[5,4‐e]isoindoles at large concentrations range. Following 72 h of treatment, 15 µl commercial solution obtained from Promega Corp. containing 3‐(4,5‐dimethylthiazol‐2‐yl)−5‐(3‐carboxymethoxyphenyl)−2‐(4‐sulphophenyl)−2H‐tetrazolium (MTS) and phenazine ethosulfate was added. The plates were incubated in a humidified atmosphere at 37°C in 5% CO2 for 2 h, and the bioreduction of MTS dye was evaluated by measuring the absorbance of each well at 490 nm using a microplate absorbance reader (iMark Microplate Reader; Bio‐Rad Laboratories, Inc.). Cell growth inhibition was expressed as a percentage of the absorbance of the control cells. Data were expressed as mean ± standard error (SE) of at least three different experiments performed in triplicate.
For orientation: Tetrazolium assays rely on reduction of a dye to a coloured formazan, in cell work by metabolically active cells.

The subject of assay [2] is MCF‐7 cells. As to the kind of experiment: Cell growth assay (MTS), MCF-7 breast cancer cells. Conditions: 72 h, the maximum concentration used in the MTS assay is reported. How it is done:
as §1, §2

The subject of assay [3] is HL‐60 cells. In words: Cell growth assay (MTS), HL-60 cells. Conditions: mean ± SE. How it is done: as §1, §2
Assay [4] relates to HL‐60R cells. In words: Viable cell count with Trypan blue exclusion test (cotreatments). To be noted: for synergistic / potentiation effect with the reference drugs (VIN or PTX): cotreatment at sub-cytotoxic concentrations. On the procedure:
Potentiation or synergism due to cotreatments were evaluated by viable cell count with Trypan blue exclusion test. Data were expressed as mean ± SE of at least three different experiments performed in duplicate.

For assay [5], the system named is HL‐60R cells. In words: Cell growth assay (MTS), HL-60R MDR variant. Conditions: 72 h of treatment, mean ± SE. How it is done:
as §1, §2

Assay [6] deals with 1‐7HB2 cells. In words: Cell growth assay (MTS), non-tumorigenic 1-7HB2 cells. Conditions: 72 h, the maximum concentration used in the MTS assay is reported. On the procedure:
as §1, §2

Assay [7] has as its system HL‐60R cell line. In words: Intracellular accumulation of doxorubicin (flow cytometry). On the procedure: The effects of 4e and 4k on intracellular accumulation of doxorubicin were evaluated in the HL‐60R cell line. […] After 24 h of incubation doxorubicin 2 µM was added for 1 h. The cells were subsequently washed with PBS twice and then resuspended in a final volume of 400 µl of PBS. The fluorescence intensity of doxorubicin was measured by flow cytometry using a FACSAria III instrument (Becton Dickinson).

Regarding `c1ccc(Cn2cc3c(c2)-c2oncc2CC3)cc1` [4a], the IC50 in assay [1] was more than 20000 nM; in assay [2] it was more than 50000 nM; in assay [3] (72 h of treatment), 1900 ± 900 nM; in assay [5], 2100 ± 200 nM; in assay [6], more than 20000 nM. Also, the “Cell growth inhibition (%)” value in assay [4] (48 h, alone at 1 µM) is reported as 2.5 ± 1.8%. In addition, the “synergistic / potentiation effect with the reference drugs (VIN or PTX)” value (shortened to “synergistic / potentiation effect”) in assay [4] is “synergistic effect”.

With `COc1ccccc1Cn1cc2c(c1)-c1oncc1CC2` [4b], the IC50 was more than 20000 nM in assay [1]; more than 50000 nM in assay [2]; 2100 ± 400 nM in assay [3] (72 h of treatment); 2400 ± 800 nM in assay [5]; more than 20000 nM in assay [6].

For `COc1cccc(Cn2cc3c(c2)-c2oncc2CC3)c1` [4c], the IC50 in assay [1] is more than 5000 nM; in assay [2], more than 50000 nM; in assay [6] it was more than 5000 nM. In addition, in assay [4] (48 h, alone at 0.2 µM), the “Cell growth inhibition (%)” value is 42.5 ± 0.3%. Besides, the “synergistic / potentiation effect” value in assay [4] is on record as “synergistic effect”.

With `COc1ccc(Cn2cc3c(c2)-c2oncc2CC3)cc1OC` [4d], the IC50 in assay [1] is more than 5000 nM; in assay [2], more than 50000 nM; in assay [3] (72 h of treatment), 600 ± 10 nM; in assay [5], 700 ± 90 nM; in assay [6], more than 5000 nM.

With `COc1cc(Cn2cc3c(c2)-c2oncc2CC3)cc(OC)c1OC` [4e], the IC50 is more than 100 nM in assay [1], more than 5000 nM in assay [2] and more than 100 nM in assay [6]. In addition, the “synergistic / potentiation effect” value in assay [4] is on record as “not detected any potentiation”. For the same compound, the “Fluorescence (%) HL‐60R” value in assay [7] (0.04 µM for 24 h, without doxorubicin) is given as 0.2 ± 0.07%. In addition, in assay [7] (pretreated 0.04 µM for 24 h + Doxo 2 µM 1 h), the “Fluorescence (%) HL‐60R (intracellular accumulation of doxorubicin)” value came out at 8.8 ± 0.3 %.

As to `COc1cccc2c1C(=O)c1c(O)c3c(c(O)c1C2=O)C[C@@](O)(C(=O)CO)C[C@@H]3O[C@H]1C[C@H](N)[C@H](O)[C@H](C)O1` [Doxorubicin, doxorubicin, reference compound], the “Fluorescence (%) HL‐60R” value in assay [7] (Doxo 2 µM 1 h alone) stood at 4.4%; in assay [7] (Doxo 2 µM 1 h alone, listed as Doxo), 4.4 ± 0.3%.

Turning to `COc1ccc(CCN(C)CCCC(C#N)(c2ccc(OC)c(OC)c2)C(C)C)cc1OC` (centres unmarked) [Verapamil, reference compound], in assay [7] (10 µM for 24 h, without doxorubicin), the “Fluorescence (%) HL‐60R” value was 0.3 ± 0.1%. Also, in assay [7] (pretreated 10 µM for 24 h + Doxo 2 µM 1 h), the “Fluorescence (%) HL‐60R (intracellular accumulation of doxorubicin)” value amounted to 58.5 ± 2.5 %.

With `CC[C@]1(O)C[C@@H]2CN(CCc3c([nH]c4ccccc34)[C@@](C(=O)OC)(c3cc4c(cc3OC)N(C)[C@H]3[C@@](O)(C(=O)OC)[C@H](OC(C)=O)[C@]5(CC)C=CCN6CC[C@]43[C@@H]65)C2)C1` [Vinblastine, reference compound], the IC50 in assay [3] (Homo sapiens, HL-60, 72 h of treatment) amounted to 50 nM; in assay [5] (HL60R), 820 ± 20 nM. The inhibition at 0.3 µM in assay [4] (HL60R, 48 h, alone at 0.3 µM, read-out: Cell growth inhibition (%)) was 0%.
